Tests used:
[1] = target: T1, CFTR (Homo sapiens, UniProt P13569); assay: Short-circuit current (Isc) analysis in IL-13-treated HBE cells, forskolin / CFTRinh-172 response; format: cell-based; conditions: 25 μM, 30 min pre-treatment
T1 construct: endogenous in cells; host or cells: IL-13-treated primary HBE cell cultures (HBE = non-CF donors)
Protocol: (§1) Further experiments were done with PDSinh-A01 because of its greater inhibition potency for Cl^−/HCO3^− exchange than PDSinh-C01. To investigate PDSinh-A01 specificity, the major ion transport pathways in HBE cells were studied by short-circuit current (Isc) analysis. Cells were treated with IL-13 to increase Ca^2+-activated Cl^− conductance (CaCC) activity. For Isc measurements, cells were sequentially treated with amiloride to inhibit the epithelial sodium channel (ENaC), forskolin to activate the cystic fibrosis transmembrane conductance regulator (CFTR), CFTRinh-172 to inhibit CFTR, and ATP to activate CaCC. In the absence of PDSinh-A01, ion channel modulators produced the anticipated changes in Isc (FIG. 4A).
(§2) IL-13-treated HBE cells were cultured on Snapwell clear permeable supports (12 mm diameter, 0.4 μm polyester membrane, Costar, Corning, Corning, N.Y.). Short-circuit current was measured using symmetrical HCO3^−-buffered solutions (in mM: 120 NaCl, 5 KCl, 1 MgCl2, 1 CaCl2, 5 Hepes, 25 NaHCO3; pH 7.4) as described, with ion transport modulators added to both apical and basolateral bathing solutions. Cells were equilibrated with 95% O2/5% CO2 and maintained at 37° C. during data acquisition. Statistical analysis was by Student's t-test.

[2] = test system: HBE and CFBE cell cultures; assay: ASL depth by confocal imaging of rhodamine B-dextran in HBE and CFBE cultures; format: cell-based, human; conditions: 25 μM, 4-6 hours
Protocol: ASL depth was measured in HBE and CFBE cell cultures under basal conditions and with chronic IL-13-treatment. […] Treatment of HBE and CFBE cell cultures with IL-13 produced a significant increase in ASL depth to ˜16 μm. Remarkably, treatment of IL-13-treated HBE and CFBE cell cultures with PDSinh-A01 produced a significant further increase in ASL depth of ˜8 μm (FIG. 6A, right; summary in FIG. 6B). Pendrin inhibition thus causes ASL hydration in IL-13-treated HBE and CFBE cell cultures, providing pharmacological evidence for pendrin as a key regulator of ASL hydration in airway cell cultures exposed to an inflammatory stimulant.
ASL depth was measured by confocal imaging of rhodamine B-dextran fluorescence (20 μl of 0.1 mg/ml in PBS) applied 4-6 h prior to measurement. Scanning confocal microscopy was done using an upright Nikon EZ-C1 confocal microscope equipped with a LUMplan FL N 60×/1.00w objective (Olympus, Waltham, Mass.). […] In some experiments ASL depth was measured after treatment with 25 μM PDSinh-A01 in the culture medium for 4-6 hours. ASL depth was measured using a multi-point histogram method in which each confocal z-stack was fitted to a quadratic function, as described and validated previously.

[3] = test system: CaCC; assay: Short-circuit current (Isc) analysis in IL-13-treated HBE cells, ATP response; format: cell-based, human; conditions: 25 μM, 30 min pre-treatment
Protocol: as §1, §2

[4] = Pharmacokinetics in mice, LC/MS of plasma and urine; format: in vivo; conditions: 10 mg/kg bolus ip
Protocol: (§3) Pharmacokinetics measurements were done to guide studies of diuretic efficacy. Animal experiments were approved by UCSF Institutional Animal Care and Use Committee. Female CD1 mice (8-10 weeks) were injected with 10 mg/kg PDSinh-C01 (in saline containing 5% DMSO and 10% Kolliphor HS) ip and blood was collected by orbital puncture at 15, 30, 60, 150 and 240 min, and centrifuged at 5000 rpm for 15 min to separate plasma. Urine was collected in metabolic cages. An LC/MS method was developed to measure PDSinh-C01 concentrations in mouse blood and urine. Plasma and urine samples (60 μL) were mixed with 300-μL acetonitrile and centrifuged at 13000 rpm for 20 min, and 90 μL of the supernatant was taken for liquid chromatography/mass spectrometry (LC/MS; Waters 2695 and Micromass ZQ). […] Sodium and potassium concentrations in 3-h collected urine samples were measured by flame photometry (PFP7 Clinical Flame Photometer, Bibby Scientific Ltd, Stone. Staffs, UK). […] Blood gas was analyzed by iSTAT1 with CG4+ cartridges (Abbott Laboratories, Abbott Park, IL, USA). Urine pH was measured on freshly collected urine samples using an AB 15 pH Meter (Fisher Scientific, Pittsburgh, Pa., USA). Experiments with two groups were analyzed with Student's t-test, and experiments with 3 or more groups were analyzed using one-way analysis of variance and post-hoc Newman-Keuls multiple comparisons test. […]

[5] = test system: mice (CD-1 and C57Bl/6); assay: Acute furosemide diuresis model in mice; format: in vivo
Protocol: as §3

T1 sequence (P13569 whole entry): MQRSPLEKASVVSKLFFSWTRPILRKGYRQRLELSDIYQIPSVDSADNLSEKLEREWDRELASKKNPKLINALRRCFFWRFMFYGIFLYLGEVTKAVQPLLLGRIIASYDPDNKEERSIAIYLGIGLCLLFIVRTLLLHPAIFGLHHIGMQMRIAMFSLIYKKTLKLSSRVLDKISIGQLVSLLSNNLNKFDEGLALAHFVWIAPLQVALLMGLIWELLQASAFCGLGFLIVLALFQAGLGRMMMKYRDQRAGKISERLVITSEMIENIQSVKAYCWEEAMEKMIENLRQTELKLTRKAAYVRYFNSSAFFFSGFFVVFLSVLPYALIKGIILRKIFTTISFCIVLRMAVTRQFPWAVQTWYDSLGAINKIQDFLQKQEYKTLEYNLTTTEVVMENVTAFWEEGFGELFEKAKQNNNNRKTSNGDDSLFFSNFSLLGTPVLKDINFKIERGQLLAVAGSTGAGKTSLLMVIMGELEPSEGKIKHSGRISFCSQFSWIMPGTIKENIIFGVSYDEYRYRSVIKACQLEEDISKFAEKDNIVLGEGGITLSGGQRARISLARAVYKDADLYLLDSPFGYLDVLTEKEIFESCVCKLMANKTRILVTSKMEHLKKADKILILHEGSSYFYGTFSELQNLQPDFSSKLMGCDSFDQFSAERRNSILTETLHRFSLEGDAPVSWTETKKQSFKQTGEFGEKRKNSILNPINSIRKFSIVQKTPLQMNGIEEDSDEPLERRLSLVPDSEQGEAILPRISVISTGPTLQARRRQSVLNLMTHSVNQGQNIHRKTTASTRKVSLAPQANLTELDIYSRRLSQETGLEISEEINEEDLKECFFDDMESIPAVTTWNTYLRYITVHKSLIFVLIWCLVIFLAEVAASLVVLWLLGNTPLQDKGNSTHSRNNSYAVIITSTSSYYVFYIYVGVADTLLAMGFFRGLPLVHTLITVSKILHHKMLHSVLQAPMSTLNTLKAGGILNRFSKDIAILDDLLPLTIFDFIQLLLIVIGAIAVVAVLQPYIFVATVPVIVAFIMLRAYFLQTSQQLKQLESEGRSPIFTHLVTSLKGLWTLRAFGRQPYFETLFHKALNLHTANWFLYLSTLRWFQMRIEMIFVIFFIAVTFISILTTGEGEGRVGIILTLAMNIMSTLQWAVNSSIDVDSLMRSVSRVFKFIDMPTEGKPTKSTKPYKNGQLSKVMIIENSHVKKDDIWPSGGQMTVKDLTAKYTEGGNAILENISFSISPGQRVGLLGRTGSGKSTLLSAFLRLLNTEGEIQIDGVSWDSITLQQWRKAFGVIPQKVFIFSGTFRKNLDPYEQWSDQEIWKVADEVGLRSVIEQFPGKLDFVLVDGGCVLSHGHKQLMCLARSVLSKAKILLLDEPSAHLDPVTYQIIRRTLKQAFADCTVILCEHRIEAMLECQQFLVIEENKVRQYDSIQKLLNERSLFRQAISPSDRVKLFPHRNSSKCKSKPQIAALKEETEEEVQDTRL

| Compound | effect on CFTR activity (Isc response) [1] | further increase in ASL depth, IL-13-treated cultures ([2]; IL-13-treated) [μm] | effect on ASL depth, basal conditions ([2]; no IL-13) | effect on CaCC activity (Isc response) [3] | concentration in plasma [4] | concentration in urine [4] | increase in urine volume ([5]; 10 mg/kg ip with furosemide 5-50 mg/kg, 3 h urine) [%] | 3-h urinary K+ excretion ([5]; with furosemide) |
| --- | --- | --- | --- | --- | --- | --- | --- | --- |
| Cn1nc(COc2cccc(F)c2)c2c1CCN(C(=O)Nc1ccc(Cl)cc1)C2 [PDSinh-A01] | did not affect the activity | ~8 | did not significantly change | did not affect the activity | – | – | – | – |
| Cc1n[nH]c(-c2cc(S(=O)(=O)NC3CCCc4ccccc43)c(C)s2)c1C (centres unmarked) [PDSinh-C01] | – | – | – | – | predicted therapeutic concentrations for several hours | predicted therapeutic concentrations for several hours | ~30 | no significant effect |

From patent publication US10702506B2, “Small molecule inhibitors of pendrin ion exchange and pharmaceutical compositions” (THE REGENTS OF THE UNIVERSITY OF CALIFORNIA, priority 2016, dated 2020)
